The record followed here is publication PMC11472058, “Trinucleotide cap analogs with triphosphate chain modifications: synthesis, properties, and evaluation as mRNA capping reagents” (Nucleic Acids Research, 2024).

For this experiment, the target named is T1, human eIF4E1a (Homo sapiens, UniProt P06730).
T1 construct: made in house; host or cells: E. coli Rosetta 2 (DE3)pLysS
The experiment is described as follows: Fluorescence quenching titration (FQT) binding assay with eIF4E. How it is done: The human eIF4E1a protein was expressed without affinity tag in E. coli Rosseta 2 (DE3)pLysS strain (Novagen) under conditions leading to accumulation of the produced protein in inclusion bodies ([48]). The protein was extracted from inclusion bodies with buffer containing 6 M guanidine hydrochloride, refolded by one-step dialysis against 50 mM HEPES/KOH (pH 7.2), 100 mM KCl, 0.5 mM EDTA, 2 mM DTT, and purified by ion exchange chromatography on HiTrap SP HP 5 ml column (GE Healthcare) using salts gradient. Finally, protein was filtered using Ultrafree MC-HV Centrifugal PVDF filters with 0.45 μm membrane pore (Millipore) to remove protein aggregates and its concentration was determined spectrophotometrically assuming the theoretical extinction coefficient ϵ280nm = 52 940 L mol^−1cm^−1—calculated from amino acid composition using algorithm on ExPASy Server.
Fluorescence titration measurements were carried out on a LS-55 spectrofluorometer (Perkin Elmer Co., Norwalk, CT, USA) in a quartz semi-micro cuvette (Hellma, Germany) with optical lengths 4 mm and 10 mm for absorption and emission, respectively, which was thermostated at 20.0 ± 0.2 °C. The titrations were performed in 50 mM Hepes/KOH pH 7.2, 100 mM KCl, 0.5 mM EDTA and 1 mM DTT by adding 1 μl aliquots of increasing concentrations of the cap solutions to 1.4 ml of 0.1 μM eIF4E1a solution. The eIF4E1a fluorescence was excited at 280 nm and the fluorescence intensity was monitored at a single wavelength 340 nm. The measured fluorescence intensities were corrected for dilution (<4%) and for the inner filter effect. Association equilibrium constants (Kas) were obtained by fitting the theoretical curve for fluorescence intensity (F) upon total concentration of cap analogs ([L]) to the titration data according to the equation: […]
with the concentration of the cap analogs–eIF4E1a complex [cx] given by:
where Δϕ stands for the difference between the fluorescence efficiencies of the apo- and cap analog bound proteins; ϕlig-free is the fluorescence efficiency of the free cap analog; F(0) is the initial fluorescence, and Pact is the total concentration of the active protein ([49]). The final KAS values were calculated as a weighted average from three independent titrations and represented as the KD values. Numerical least-squares nonlinear regression analysis was performed using ORIGIN 2021 from Microcal Software Inc., USA.
Recognition of the mRNA 5′ cap by translation initiation factor 4E (eIF4E) is considered to be the rate-limiting step for the entire translation process ([63],[64]), therefore we investigated the affinity of novel trinucleotide cap analogs to the canonical human eIF4E1a protein by fluorescence quenching titration (FQT; Table 1 column 1, Figure 3) ([65]). As a reference, we determined the dissociation constant between heIF4E1a and the trinucleotide cap-1 structure m^7GpppAmpG, which was equal to 42 nM and very close to the analogous value previously determined for mouse Δ27NeIF4E (46 nM) ([12]). In the case of all modifications tested, the KD values for cap-heIF4E1a complexes are consistent with the results previously obtained for dinucleotide counterparts and murine eIF4E protein, although the magnitude of the modification effect is generally lower. The most tightly bound tetraphosphate analogs (compounds 10–12) show KD values of 6–7 nM, which means that their affinity is about 6-fold higher compared to the triphosphate counterparts. The affinities decrease upon CH2 or CCl2 modification of the tetraphosphate bridge (compounds 13–16), but they are still 4–5 times higher than for the triphosphate analogs with the same adenosine methylation pattern.

T1 sequence (P06730 whole entry): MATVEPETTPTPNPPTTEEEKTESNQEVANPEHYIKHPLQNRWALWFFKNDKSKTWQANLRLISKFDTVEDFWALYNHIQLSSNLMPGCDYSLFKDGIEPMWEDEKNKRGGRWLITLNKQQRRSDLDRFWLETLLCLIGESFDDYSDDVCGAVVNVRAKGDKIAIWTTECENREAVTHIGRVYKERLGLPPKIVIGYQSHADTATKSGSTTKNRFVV

Broadly, the Kd is the constant that tells how readily two partners part at equilibrium. Turning to `CO[C@@H]1[C@H](OP(=O)(O)OC[C@H]2O[C@@H](n3cnc4c(=O)[nH]c(N)nc43)[C@H](O)[C@@H]2O)[C@@H](CSP(=O)([O-])OP(=O)(O)OP(=O)(O)OC[C@H]2O[C@@H](n3c[n+](C)c4c(O)nc(N)nc43)[C@H](O)[C@@H]2O)O[C@H]1n1cnc2c(N)ncnc21` [Compound 8, m^7Gppp^5’SAmpG], the “effect of modification on binding affinity for heIF4E1a (in words)” value (compared to corresponding triphosphates) was “virtually no effect on binding affinity”. Moreover, where the note is “fluorescence quenching titration, 20 °C, pH 7.2, average of triplicates ± SD, read-out: heIF4E1a KD”, the Kd turned out to be 48.7 ± 1.2 nM.
